Results: patent US12054562B2, “Cell-permeable inhibitory agent and methods of use thereof in treatment of cognitive and mood disorders” (priority 2015, dated 2024)

Molecular target: T1, gephyrin and α5 subunit interaction (Mus musculus, UniProt Q8BUV3)
T1 construct: from tissue; host or cells: hippocampus of adult mice
T1 sequence (Q8BUV3 1-769): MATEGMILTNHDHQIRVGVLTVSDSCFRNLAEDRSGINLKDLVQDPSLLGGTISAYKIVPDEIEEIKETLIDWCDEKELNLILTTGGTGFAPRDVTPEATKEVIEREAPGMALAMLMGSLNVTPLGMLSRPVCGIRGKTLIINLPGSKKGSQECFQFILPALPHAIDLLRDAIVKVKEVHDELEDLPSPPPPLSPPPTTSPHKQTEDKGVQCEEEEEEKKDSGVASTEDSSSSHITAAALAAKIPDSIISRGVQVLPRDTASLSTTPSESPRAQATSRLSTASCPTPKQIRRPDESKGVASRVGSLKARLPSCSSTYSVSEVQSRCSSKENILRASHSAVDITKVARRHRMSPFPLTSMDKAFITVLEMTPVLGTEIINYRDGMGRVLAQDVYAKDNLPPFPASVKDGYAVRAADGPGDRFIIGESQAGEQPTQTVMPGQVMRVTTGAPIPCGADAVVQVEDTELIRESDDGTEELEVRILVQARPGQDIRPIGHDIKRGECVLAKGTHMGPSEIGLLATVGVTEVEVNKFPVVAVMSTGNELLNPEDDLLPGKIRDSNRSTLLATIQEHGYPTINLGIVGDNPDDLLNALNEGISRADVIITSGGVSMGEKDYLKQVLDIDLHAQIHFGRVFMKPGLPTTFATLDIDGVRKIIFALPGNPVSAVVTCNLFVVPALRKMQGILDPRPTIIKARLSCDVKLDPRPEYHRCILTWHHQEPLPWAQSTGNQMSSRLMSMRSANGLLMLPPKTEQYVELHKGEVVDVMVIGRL
Test: Co-IP and WB of gephyrin and α5 subunit interaction
Assay type: binding
Settings: immunoprecipitates from Example 1, hippocampal tissue
Procedure: For the immunoprecipitation experiment, the tissue lysate containing […] protein (in 250 μl) was incubated with 20 μM (20 μl) of either the inhibitory peptide (SEQ ID NO:1) or scramble peptide (SEQ ID NO:5) without TAT sequence. One hour following the incubation, the antibodies (2-4 μg) against either α5 subunit (cat #sc—31417, Santa Cruz Biotechnology, Inc., 10410 Finnell St. Dallas, TX, 75220, USA) or radixin (cat #ab91312, Abcam Inc., c/o 913860, PO Box 4090 Stn A, Toronto, ON M5W 0E9), or 4 μg of non-specific IgG protein (cat #sc—2028, Santa Cruz Biotechnology, Inc., 10410 Finnell St. Dallas, TX, 75220, USA), were added to the lysate solution. After gently shaking overnight at 4° C., the immune complexes were precipitated with protein A/G plus-agarose beads (Santa Cruz Biotechnology, Inc., 10410 Finnell St. Dallas, TX, 75220, USA). Forty microliters of the A/G plus agarose beads were added to the immune complex solution and shaking gently for 2 h at 4° C. After spin with the microcentrifuge (Eppendorf Mini-Spin Plus, Marshall Scientific, 424 Route 125, Brentwood, NH 03833, USA), the immunoprecipitates were washed four times with ice-cold PBS, then resuspended in 2× Laemmli sample loading buffer containing 5% […], and boiled for 5 min. These samples were subjected to Western blot experiment. […]

In the case of NYFTKRGWAWDGKKAL [inhibitory peptide], the “gephyrin and α5 subunit interaction” value is reported as “did not interfere”.
